Experimental data published in article PMC7046635, “A combined experimental and modelling approach for the Weimberg pathway optimisation” (Nature Communications, 2020).

Key:
[1] = molecular target: T1, D-xylonate dehydratase (XAD) (Caulobacter vibrioides, UniProt A0A0H3C6H6); assay: biochemical; set-up: product inhibition constants from fits of rate equations to initial rate kinetics of purified enzyme; details: read-out: K estimate (mM), inhibition
T1 construct: gene xylD; full-length gene in pET vector, N-terminal His tag, E. coli expression
T1 sequence (A0A0H3C6H6 1-591): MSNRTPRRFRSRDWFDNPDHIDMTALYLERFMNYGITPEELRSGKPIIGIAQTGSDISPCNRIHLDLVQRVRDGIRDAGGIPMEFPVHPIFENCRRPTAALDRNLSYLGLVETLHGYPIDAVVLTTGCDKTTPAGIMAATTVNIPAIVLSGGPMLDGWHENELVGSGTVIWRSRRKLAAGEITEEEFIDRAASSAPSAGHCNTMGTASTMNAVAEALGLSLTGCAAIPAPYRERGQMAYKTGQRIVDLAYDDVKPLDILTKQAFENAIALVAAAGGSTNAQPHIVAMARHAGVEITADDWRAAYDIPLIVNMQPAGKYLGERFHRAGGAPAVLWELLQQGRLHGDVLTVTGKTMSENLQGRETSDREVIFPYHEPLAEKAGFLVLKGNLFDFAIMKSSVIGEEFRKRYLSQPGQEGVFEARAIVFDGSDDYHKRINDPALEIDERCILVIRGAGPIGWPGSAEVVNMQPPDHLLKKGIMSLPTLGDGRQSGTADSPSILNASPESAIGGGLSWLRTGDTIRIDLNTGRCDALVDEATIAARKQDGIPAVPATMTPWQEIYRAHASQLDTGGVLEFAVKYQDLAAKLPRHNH
Method: (§1) All reactions completed the substrate conversion in roughly 90 min, which is in agreement with model simulations that include product inhibition (Fig. 2c). However, a much slower conversion was observed than predicted, based on initial rate kinetics excluding product inhibition (Supplementary Note 1 and Supplementary Figs. 9–11). […] For XLA and KDXD, the inhibition constants for D-xylonate and KGSA, respectively, had to be fitted based on the conversion data, as these enzymes are analysed in coupled enzyme assays. The progress curves after single enzyme additions and the required model adjustments are shown and discussed in Supplementary Note 1, all enzyme kinetic parameters are shown in Supplementary Tables 3–7. […] As a final step in model construction, the one-pot cascade model was established. The results of the sequential pathway reconstruction were used to define the ‘reference state’ for the one-pot cascade conversion of D-xylose to α-[compound left out] (Supplementary Note 1). For this, we added the five enzymes together, using amounts close to those used in the sequential experiment (2.5 μg ml^−1 XDH, 0.8 μg ml^−1 XLA, 8.67 μg ml^−1 XAD, 0.5 μg ml^−1 KDXD and 10 μg ml^−1 KGSADH). The conversion of 5 mM D-xylose via the pathway intermediates to α-[compound left out] was followed using NMR (Fig. 3a). The model based on the isolated reaction kinetics predicted the first part of the pathway accurately, i.e., D-xylose oxidation, lactone cleavage and D-xylonate dehydration. […] S2 enzyme (Supplementary Table 5), measured using an off-line colorimetric assay. […] Product inhibition for the individual metabolites and combination of metabolites was determined in initial rate experiments in a linked KGSADH assay (Supplementary Fig. 7), while for α-[compound left out] semialdehyde the binding constant was estimated in a conversion assay (Supplementary Fig. 10b).

[2] = molecular target: T2, α-Ketoglutarate semialdehyde dehydrogenase (KGSADH) (Caulobacter vibrioides, UniProt A0A0H3C801); assay: biochemical; set-up: product inhibition constants from fits of rate equations to initial rate kinetics of purified enzyme; details: read-out: K estimate (mM), inhibition
T2 construct: gene xylA; full-length gene in pET vector, N-terminal His tag, E. coli expression, Ni-TED and size exclusion
T2 sequence (A0A0H3C801 1-478): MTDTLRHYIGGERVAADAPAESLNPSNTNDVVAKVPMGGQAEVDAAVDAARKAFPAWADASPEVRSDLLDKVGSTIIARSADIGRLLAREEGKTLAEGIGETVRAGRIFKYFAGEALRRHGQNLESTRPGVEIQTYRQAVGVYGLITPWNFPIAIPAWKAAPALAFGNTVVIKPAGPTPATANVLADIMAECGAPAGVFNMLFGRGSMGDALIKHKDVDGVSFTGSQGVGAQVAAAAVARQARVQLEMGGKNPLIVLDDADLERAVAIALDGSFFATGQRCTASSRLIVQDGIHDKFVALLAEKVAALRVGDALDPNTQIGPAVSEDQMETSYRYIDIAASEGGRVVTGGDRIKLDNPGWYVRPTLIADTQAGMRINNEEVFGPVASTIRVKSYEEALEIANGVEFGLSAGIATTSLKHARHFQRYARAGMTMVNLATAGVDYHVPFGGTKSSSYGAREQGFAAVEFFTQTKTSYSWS
Method: as §1

[3] = molecular target: T3, D-xylonate dehydratase (XAD) (Caulobacter vibrioides, UniProt Q9A9Z2); assay: discontinuous thiobarbituric acid assay; assay type: biochemical; details: 100 mM HEPES/NaOH pH 7.5, 37 °C, enzyme stored with 17 µmol MnCl2 per mg
T3 construct: gene xylD; full-length gene in pET vector, N-terminal His tag, E. coli expression, Ni-TED and size exclusion, stored with MnCl2

[4] = molecular target: T4, D-xylose dehydrogenase (XDH) (Caulobacter vibrioides, UniProt B8H1Z0); assay: biochemical; set-up: product inhibition constants from fits of rate equations to initial rate kinetics of purified enzyme; details: read-out: K estimate (mM), inhibition
T4 construct: gene xylB; full-length gene in pET vector, N-terminal His tag, E. coli expression, Ni-TED and size exclusion
T4 sequence (B8H1Z0 1-248): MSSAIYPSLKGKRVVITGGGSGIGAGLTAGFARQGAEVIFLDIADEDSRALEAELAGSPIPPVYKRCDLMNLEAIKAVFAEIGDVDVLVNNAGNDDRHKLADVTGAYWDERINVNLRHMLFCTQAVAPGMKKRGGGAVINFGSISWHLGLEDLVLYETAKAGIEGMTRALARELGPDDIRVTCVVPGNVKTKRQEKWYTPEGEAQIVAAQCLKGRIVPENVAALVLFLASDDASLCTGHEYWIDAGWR

T3 sequence (Q9A9Z2 whole entry): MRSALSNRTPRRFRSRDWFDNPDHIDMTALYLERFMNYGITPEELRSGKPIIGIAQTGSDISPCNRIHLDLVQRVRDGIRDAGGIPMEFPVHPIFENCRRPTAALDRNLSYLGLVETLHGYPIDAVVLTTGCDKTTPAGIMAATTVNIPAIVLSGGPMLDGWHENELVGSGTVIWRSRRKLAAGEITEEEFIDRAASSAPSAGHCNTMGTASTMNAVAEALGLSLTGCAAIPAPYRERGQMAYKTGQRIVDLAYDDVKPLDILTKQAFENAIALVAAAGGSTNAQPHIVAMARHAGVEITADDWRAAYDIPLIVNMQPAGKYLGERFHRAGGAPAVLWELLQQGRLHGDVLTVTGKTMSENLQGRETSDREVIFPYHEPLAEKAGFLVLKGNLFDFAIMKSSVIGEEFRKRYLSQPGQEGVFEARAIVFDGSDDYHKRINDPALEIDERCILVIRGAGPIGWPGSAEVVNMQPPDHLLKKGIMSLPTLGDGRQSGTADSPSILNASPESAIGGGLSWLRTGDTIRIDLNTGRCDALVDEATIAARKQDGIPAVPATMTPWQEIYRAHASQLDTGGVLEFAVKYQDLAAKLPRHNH

| Compound | Ki [2] | Ki [4] | further results |
| --- | --- | --- | --- |
| O=C(O)C(=O)C[C@H](O)CO [2-keto-3-deoxy-D-xylonate] | 0.021 mM |  | Ki [1]: 0.86 mM |
| O=C(O)[C@H](O)[C@@H](O)[C@H](O)CO [D-xylonate] |  |  | Km [3]: 790 µM |
| O=C1O[C@H](CO)[C@H](O)[C@H]1O [D-xylono-1,4-lactone] |  | 0.54 mM |  |
| O=C(O)CCC(=O)C(=O)O [KG] | 0.28 mM |  |  |
| NC(=O)C1=CN([C@@H]2O[C@H](COP(=O)(O)OP(=O)(O)OC[C@H]3O[C@@H](n4cnc5c(N)ncnc54)[C@H](O)[C@@H]3O)[C@@H](O)[C@H]2O)C=CC1 [NADH] |  | 0.03 mM |  |
